The values that follow come from BindingDB's records for doi:10.1111/cbdd.12280 (Universiti Kebangsaan Malaysia, Jalan Raja Muda Abdul Aziz, …, 2014).

For one assay, the target named is T1, Phospholipase A2 group V (Homo sapiens, UniProt P39877).
T1 sequence (P39877 whole entry): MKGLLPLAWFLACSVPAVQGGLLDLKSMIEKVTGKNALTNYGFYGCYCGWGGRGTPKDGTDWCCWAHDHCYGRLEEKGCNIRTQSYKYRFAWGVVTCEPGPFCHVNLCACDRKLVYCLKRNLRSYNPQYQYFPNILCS
In words: sPLA2-V activity assay. To be noted: pH 8; 25 °C. Here is the method:
Substrate 1,2-bis(heptanoylthio)-glycerophosphocholine and human recombinant PLA2-V were resuspended in assay buffer, and DTNB was dissolved in an aqueous solution of Tris-HCl (pH 8).

Assay [1] concerns the target T2, Prostaglandin G/H synthase 1 (Ovis aries, UniProt P05979).
T2 sequence (P05979 whole entry): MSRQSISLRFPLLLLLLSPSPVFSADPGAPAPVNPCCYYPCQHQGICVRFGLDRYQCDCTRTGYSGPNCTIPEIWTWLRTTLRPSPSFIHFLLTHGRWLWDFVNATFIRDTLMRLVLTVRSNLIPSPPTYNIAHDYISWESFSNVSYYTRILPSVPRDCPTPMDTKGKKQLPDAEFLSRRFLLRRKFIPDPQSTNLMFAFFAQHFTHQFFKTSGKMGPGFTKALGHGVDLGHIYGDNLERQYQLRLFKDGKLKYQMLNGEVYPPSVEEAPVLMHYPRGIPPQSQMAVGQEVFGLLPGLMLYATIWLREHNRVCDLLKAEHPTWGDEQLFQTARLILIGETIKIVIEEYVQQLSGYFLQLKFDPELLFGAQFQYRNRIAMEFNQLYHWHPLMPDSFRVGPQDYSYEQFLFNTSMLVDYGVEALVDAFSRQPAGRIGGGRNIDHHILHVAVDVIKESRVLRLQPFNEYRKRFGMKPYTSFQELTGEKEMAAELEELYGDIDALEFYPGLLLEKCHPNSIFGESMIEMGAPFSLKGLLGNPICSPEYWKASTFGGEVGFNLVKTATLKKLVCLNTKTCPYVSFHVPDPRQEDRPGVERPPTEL
Briefly: Cyclooxygenase activity assay. To be noted: pH 8; 37 °C. Here is the method:
(§1) Reaction mixture containing 100 mM Tris-HCl buffer (pH 8) and COX-1 (ovine) or COX-2 (human recombinant) was preincubated for 10 min in a water bath at 37 °C. The reaction was initiated by the addition of 10 µL arachidonic acid (final concentration 100 µM). After 2 min, the reaction was terminated by adding 1 M HCl. Test compounds were dissolved in DMSO and diluted to the desired concentration with potassium phosphate buffer of pH 7.4.

For another assay, the target named is T3, Prostaglandin E synthase (Homo sapiens, UniProt O14684).
T3 sequence (O14684 whole entry): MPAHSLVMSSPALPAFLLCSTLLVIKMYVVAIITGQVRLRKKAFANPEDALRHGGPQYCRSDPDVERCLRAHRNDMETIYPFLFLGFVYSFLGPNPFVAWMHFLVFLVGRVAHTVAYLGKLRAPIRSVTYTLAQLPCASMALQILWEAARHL
In words: Microsomal prostaglandin E synthase-1 activity assay. To be noted: pH 7; 20 °C. As for the experimental part: The assay buffer contained 100 mM KHPO4 (pH 7.0), 2 mM EDTA and 2.5 mM reduced GSH. 100 µL of reaction buffer containing human recombinant mPGES-1 was added to 96-well non-binding plate, followed by the addition of test samples to their respective wells. The reaction mixture was incubated for 30 min at 20 °C. […] The reaction was quenched by adding 20 µL of SnCl2 solution in 1 N HCl.

Another assay has as its target T4, Lipoxygenase (Glycine max, UniProt Q43440).
T4 sequence (Q43440 whole entry): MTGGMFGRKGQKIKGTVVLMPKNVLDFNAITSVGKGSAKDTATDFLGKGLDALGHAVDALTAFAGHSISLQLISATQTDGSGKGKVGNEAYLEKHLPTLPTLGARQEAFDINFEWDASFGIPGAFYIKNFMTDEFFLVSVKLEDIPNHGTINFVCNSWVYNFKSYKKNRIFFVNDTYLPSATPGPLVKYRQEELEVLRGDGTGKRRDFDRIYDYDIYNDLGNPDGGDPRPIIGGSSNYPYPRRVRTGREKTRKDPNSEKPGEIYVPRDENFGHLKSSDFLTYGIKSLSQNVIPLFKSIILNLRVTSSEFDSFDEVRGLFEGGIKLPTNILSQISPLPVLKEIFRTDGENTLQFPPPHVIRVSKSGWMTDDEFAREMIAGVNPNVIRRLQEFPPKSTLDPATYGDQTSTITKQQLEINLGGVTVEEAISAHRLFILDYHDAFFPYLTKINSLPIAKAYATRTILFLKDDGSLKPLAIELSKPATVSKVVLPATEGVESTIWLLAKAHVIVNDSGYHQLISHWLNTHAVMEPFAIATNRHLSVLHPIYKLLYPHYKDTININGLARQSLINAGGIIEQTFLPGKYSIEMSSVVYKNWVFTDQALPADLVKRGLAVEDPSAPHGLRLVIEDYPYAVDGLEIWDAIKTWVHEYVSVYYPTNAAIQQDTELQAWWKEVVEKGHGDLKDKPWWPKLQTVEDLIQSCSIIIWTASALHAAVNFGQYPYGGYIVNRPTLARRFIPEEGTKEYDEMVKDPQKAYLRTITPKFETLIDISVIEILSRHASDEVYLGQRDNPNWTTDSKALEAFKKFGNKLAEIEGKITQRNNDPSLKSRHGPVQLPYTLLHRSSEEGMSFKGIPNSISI
Briefly: Lipo-oxygenase activity assay. As to conditions: pH 7; 25 °C. Here is the method: The assay was progressed in 96-well microliter plates containing substrate, soybean LOX enzyme, and respective test substance at room temperature in a 0.1 M Tris-HCl buffer solution at pH 7. The reaction was initiated by the addition of substrate solution to all wells and incubated for 5 min, followed by the addition of 100 µL of chromogen solution to all wells to stop enzyme catalysis and incubated for 5 min. The absorbance was measured at 490 nm. Dimethyl sulphoxide served as a negative control.

Assay [2] has as its target T5, Prostaglandin G/H synthase 2 (Homo sapiens, UniProt P35354).
T5 sequence (P35354 whole entry): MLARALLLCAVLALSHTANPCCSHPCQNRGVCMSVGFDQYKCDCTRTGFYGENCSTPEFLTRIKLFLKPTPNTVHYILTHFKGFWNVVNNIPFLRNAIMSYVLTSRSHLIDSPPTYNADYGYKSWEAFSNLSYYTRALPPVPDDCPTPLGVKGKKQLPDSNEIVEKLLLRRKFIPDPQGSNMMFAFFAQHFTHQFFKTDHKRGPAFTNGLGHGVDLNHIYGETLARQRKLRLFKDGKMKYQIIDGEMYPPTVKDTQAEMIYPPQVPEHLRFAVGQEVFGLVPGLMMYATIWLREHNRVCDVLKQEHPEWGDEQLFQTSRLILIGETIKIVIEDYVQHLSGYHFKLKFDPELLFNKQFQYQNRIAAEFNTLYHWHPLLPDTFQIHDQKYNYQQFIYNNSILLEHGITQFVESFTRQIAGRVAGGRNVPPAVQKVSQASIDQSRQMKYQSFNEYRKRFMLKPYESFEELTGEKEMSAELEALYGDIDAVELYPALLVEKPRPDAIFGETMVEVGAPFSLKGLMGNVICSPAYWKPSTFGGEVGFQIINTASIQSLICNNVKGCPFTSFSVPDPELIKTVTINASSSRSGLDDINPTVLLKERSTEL
Briefly: Cyclooxygenase activity assay. To be noted: pH 8; 37 °C. Here is the method:
as §1

As for `CC(C)(C)c1ccc(/C=C/C(=O)/C=C/c2ccc(C(C)(C)C)cc2)cc1`, the IC50 is 51.9 µM against Phospholipase A2 group V, 53.2 µM in assay [1] and 37 µM at Prostaglandin E synthase.

For `CCN(CC)c1ccc(/C=C2\CC/C(=C\c3ccc(N(CC)CC)cc3)C2=O)cc1` [2,5-Bis(4-diethylaminobenzylidene)cyclopentanone (17)], the IC50 against Phospholipase A2 group V turned out to be 10.2 µM; at Lipoxygenase, 56.8 µM; in assay [1], 32 µM; on Prostaglandin E synthase it was 5.48 µM.

For the molecule `COc1cccc(/C=C2\CCC/C(=C\c3cccc(OC)c3OC)C2=O)c1OC` [2,6-Bis(2,3-dimethoxybenzylidene)cyclohexanone (3)], the IC50 came out at 11 µM against Phospholipase A2 group V; 47.8 µM at Lipoxygenase; 33.3 µM in assay [1]; 53.2 µM in assay [2]; 7.34 µM on Prostaglandin E synthase.

Take `CCN(CC)c1ccc(/C=C2\CCC/C(=C\c3ccc(N(CC)CC)cc3)C2=O)cc1` [2,6-Bis(4-diethyl-aminobenzylidene)cyclohexanone (5)]: the half-inhibitory concentration (IC50) was found to be 12.1 µM at Phospholipase A2 group V, 38.5 µM in assay [1] and 2.41 µM at Prostaglandin E synthase.

Take `CCN(CC)c1ccc(/C=C/C(=O)/C=C/c2ccc(N(CC)CC)cc2)cc1` [(1E,4E)‐1,5‐bis[4‐(diethylamino)phenyl]penta‐1,4‐ dien‐3‐one (11)]: the IC50 on Phospholipase A2 group V was determined as 16.1 µM; against Lipoxygenase, 95.1 µM; in assay [1] it was 37.7 µM; in assay [2] it was 94.9 µM; at Prostaglandin E synthase it was 6.98 µM.

Consider `COc1cc(C=CC(=O)CC(=O)C=Cc2ccc(O)c(OC)c2)ccc1O` [(1E,6E)-1,7-bis(4-hydroxy-3-methoxyphenyl)hepta-1,6-diene-3,5-dione], for which the figures for the IC50 (against Lipoxygenase; in assay [1]; on Prostaglandin E synthase) were 57.8 µM, 31.3 µM and 4.88 µM, respectively.

Turning to `COc1cccc(/C=C/C(=O)/C=C/c2cccc(OC)c2OC)c1OC` [(1Z,4Z)–1-5-Bis[2,3(dimethoxy)phenyl]-1,4-pentadien-3-one (9)], the concentration for half-maximal inhibition (IC50) came to 10.4 µM at Phospholipase A2 group V; 62.9 µM against Lipoxygenase; 41.5 µM in assay [1]; 70.7 µM in assay [2]; 14.8 µM at Prostaglandin E synthase.

`CC(C=C1CCC(=CC(C)c2ccccc2)C1=O)c1ccccc1` (stereo not drawn) [(2E,5E)‐2,5‐bis(2‐phenylpropylidene)cyclopentan‐1‐ one (16)]: the IC50 in assay [1] is 320 µM; against Prostaglandin E synthase, 7.48 µM.

Turning to `COc1cccc(/C=C2\CC/C(=C\c3cccc(OC)c3OC)C2=O)c1OC` [(2E,5E)‐2,5‐bis[(2,3‐ dimethoxyphenyl)methylidene]cyclopentan‐1‐one (15)], the IC50 at Phospholipase A2 group V came to 16.4 µM; on Lipoxygenase it was 63.8 µM; in assay [1], 40.2 µM; at Prostaglandin E synthase, 10.4 µM.

Consider `CC(C)(C)c1ccc(/C=C2\CC/C(=C\c3ccc(C(C)(C)C)cc3)C2=O)cc1` [(2E,5E)‐2,5‐bis[(4‐tert‐butyl‐2‐ methylphenyl)methylidene]cyclopentan‐1‐one (14)], for which the values for the IC50 (at Phospholipase A2 group V; in assay [1]; on Prostaglandin E synthase) were 83.2 µM, 60 µM and 24.5 µM, respectively.

Consider `CC(C=C1CCCC(=CC(C)c2ccccc2)C1=O)c1ccccc1` (stereo not drawn) [(2E,6E)‐2,6‐bis(2‐phenylpropylidene)cyclohexan‐1‐ one (4)], for which the IC50 against Phospholipase A2 group V is 94.7 µM; in assay [1] it was 194 µM; against Prostaglandin E synthase it was 20.3 µM.

On to `CC(C)(C)c1ccc(/C=C2\CCC/C(=C\c3ccc(C(C)(C)C)cc3)C2=O)cc1` [(2E,6E)‐2,6‐bis[(4‐tert‐ butylphenyl)methylidene]cyclohexan‐1‐one (2)], for which the IC50 is 53.3 µM on Phospholipase A2 group V, 43.2 µM in assay [1] and 8.95 µM on Prostaglandin E synthase.

`CC(C=CC(=O)C=CC(C)c1ccccc1)c1ccccc1` (stereo not drawn) [(3E,6E)‐2,8‐diphenylnona‐3,6‐dien‐5‐one (10)]: the values for the 50% inhibitory concentration (IC50) (at Phospholipase A2 group V; in assay [1]; on Prostaglandin E synthase) were 125 µM, 195 µM and 60.7 µM, respectively.

`CC(Cc1ccc(O)c(O)c1)C(C)Cc1ccc(O)c(O)c1` (stereo not drawn) [LOX inhibitor, N/A]: at Lipoxygenase, 9.23 µM corresponded to half-maximal inhibition (IC50).

Molecule `C[C@@H]1C[C@H]2[C@@H]3CCC4=CC(=O)C=C[C@]4(C)[C@@]3(F)[C@@H](O)C[C@]2(C)[C@@]1(O)C(=O)CO` [dexamethasone (tetramethyl-rhodamine conjugated )] yielded an IC50 against Phospholipase A2 group V of 0.61 µM.

By IC50 is commonly meant the concentration that gives 50% inhibition. A higher IC50 goes with weaker potency in that assay.
